PubChem BioAssay (NCI)
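Protocol summary: plate cells (96-well), add compound at 5 concentrations, incubate 48 h, interpolate endpoints linearly. GI50: concentration for 50% inhibition of growth. The concentration for full growth arrest is given as TGI.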

Key:
Experiment in all cases: NCI anticancer screen, dose series, 48 h
786-0 renal = tested on: 786-0 renal
A498 renal = tested on: A498 renal
A549 NSCLC = tested on: A549 NSCLC
ACHN renal = tested on: ACHN renal
BT-549 breast = tested on: BT-549 breast
CAKI-1 renal = tested on: CAKI-1 renal
CCRF-CEM leukemia = tested on: CCRF-CEM leukemia
COLO 205 colon = tested on: COLO 205 colon
DU-145 prostate = tested on: DU-145 prostate
EKVX NSCLC = tested on: EKVX NSCLC
HCC-2998 colon = tested on: HCC-2998 colon
HCT-116 colon = tested on: HCT-116 colon
HCT-15 colon = tested on: HCT-15 colon
HL-60(TB) leukemia = tested on: HL-60(TB) leukemia
HOP-62 NSCLC = tested on: HOP-62 NSCLC
HOP-92 NSCLC = tested on: HOP-92 NSCLC
HS 578T breast = tested on: HS 578T breast
HT29 colon = tested on: HT29 colon
IGROV1 ovarian = tested on: IGROV1 ovarian
K-562 leukemia = tested on: K-562 leukemia
KM12 colon = tested on: KM12 colon
LOX IMVI melanoma = tested on: LOX IMVI melanoma
M14 melanoma = tested on: M14 melanoma
MALME-3M melanoma = tested on: MALME-3M melanoma
MDA-MB-231 breast = tested on: MDA-MB-231 breast
MDA-MB-435 = tested on: MDA-MB-435
MOLT-4 leukemia = tested on: MOLT-4 leukemia
NCI-H226 lung = tested on: NCI-H226 lung
NCI-H23 lung = tested on: NCI-H23 lung
NCI-H460 lung = tested on: NCI-H460 lung
NCI-H522 lung = tested on: NCI-H522 lung
NCI/ADR-RES ovarian = tested on: NCI/ADR-RES ovarian
OVCAR-3 ovarian = tested on: OVCAR-3 ovarian
OVCAR-4 ovarian = tested on: OVCAR-4 ovarian
OVCAR-5 ovarian = tested on: OVCAR-5 ovarian
OVCAR-8 ovarian = tested on: OVCAR-8 ovarian
PC-3 prostate = tested on: PC-3 prostate
RPMI-8226 leukemia = tested on: RPMI-8226 leukemia
RXF 393 renal = tested on: RXF 393 renal
SF-268 CNS = tested on: SF-268 CNS
SF-295 CNS = tested on: SF-295 CNS
SF-539 CNS = tested on: SF-539 CNS
SK-MEL-2 melanoma = tested on: SK-MEL-2 melanoma
SK-MEL-28 melanoma = tested on: SK-MEL-28 melanoma
SK-MEL-5 melanoma = tested on: SK-MEL-5 melanoma
SK-OV-3 ovarian = tested on: SK-OV-3 ovarian
SN12C renal = tested on: SN12C renal
SNB-19 CNS = tested on: SNB-19 CNS
SNB-75 CNS = tested on: SNB-75 CNS
SW-620 colon = tested on: SW-620 colon
T-47D breast = tested on: T-47D breast
TK-10 renal = tested on: TK-10 renal
U251 CNS = tested on: U251 CNS
UACC-257 melanoma = tested on: UACC-257 melanoma
UACC-62 melanoma = tested on: UACC-62 melanoma
UO-31 renal = tested on: UO-31 renal

## C=C1C(=O)O[C@@H]2[C@@H]3O[C@@](C)(CC/C=C(\C)CCC[C@@H]2C)[C@H](O)C[C@@H]13
786-0 renal
  GI50: 7.02 µM
  TGI: 20.3 µM
A498 renal
  GI50: 8.87 µM
  TGI: 21.3 µM
A549 NSCLC
  GI50: 3.73 µM
  TGI: 14.7 µM
ACHN renal
  GI50: 1.59 µM
  TGI: 3.11 µM
BT-549 breast
  GI50: 1.84 µM
  TGI: 4.46 µM
CAKI-1 renal
  GI50: 1.73 µM
  TGI: 4.5 µM
CCRF-CEM leukemia
  GI50: 3.01 µM
  TGI: 21.3 µM
COLO 205 colon
  GI50: 2.06 µM
  TGI: 4.21 µM
DU-145 prostate
  TGI: 19.4 µM
EKVX NSCLC
  GI50: 5.56 µM
  TGI: 20.3 µM
HCC-2998 colon
  TGI: 18 µM
HCT-116 colon
  GI50: 1.49 µM
  TGI: 2.87 µM
HCT-15 colon
  GI50: 1.64 µM
  TGI: 4.53 µM
HL-60(TB) leukemia
  TGI: 8.1 µM
HOP-62 NSCLC
  TGI: 24 µM
HOP-92 NSCLC
  GI50: 1.7 µM
  TGI: 4.58 µM
HS 578T breast
  GI50: 11.4 µM
  TGI: > 100 µM
HT29 colon
  GI50: 2.41 µM
  TGI: 6.71 µM
IGROV1 ovarian
  GI50: 2.06 µM
  TGI: 5.78 µM
K-562 leukemia
  GI50: 3.1 µM
  TGI: 9.58 µM
KM12 colon
  TGI: 24.6 µM
LOX IMVI melanoma
  GI50: 1.77 µM
  TGI: 4.03 µM
M14 melanoma
  GI50: 1.72 µM
  TGI: 3.48 µM
MALME-3M melanoma
  GI50: 1.76 µM
  TGI: 4.11 µM
MDA-MB-231 breast
  GI50: 2.39 µM
  TGI: 7.18 µM
MDA-MB-435
  GI50: 1.89 µM
  TGI: 5.47 µM
MOLT-4 leukemia
  GI50: 2.75 µM
  TGI: 7.64 µM
NCI-H226 lung
  GI50: 12.5 µM
  TGI: 26.3 µM
NCI-H23 lung
  GI50: 3.71 µM
  TGI: 16.5 µM
NCI-H460 lung
  TGI: 31.6 µM
NCI-H522 lung
  GI50: 2.11 µM
  TGI: 4.5 µM
NCI/ADR-RES ovarian
  GI50: 1.67 µM
  TGI: 4.53 µM
OVCAR-3 ovarian
  GI50: 1.7 µM
  TGI: 3.34 µM
OVCAR-4 ovarian
  GI50: 2.63 µM
  TGI: 11.7 µM
OVCAR-5 ovarian
  TGI: 26.7 µM
OVCAR-8 ovarian
  GI50: 1.76 µM
  TGI: 5.85 µM
PC-3 prostate
  GI50: 4.31 µM
  TGI: 18.3 µM
RPMI-8226 leukemia
  TGI: > 100 µM
RXF 393 renal
  GI50: 1.79 µM
  TGI: 3.58 µM
SF-268 CNS
  GI50: 3.04 µM
  TGI: 10 µM
SF-295 CNS
  TGI: 27.6 µM
SF-539 CNS
  GI50: 2.7 µM
  TGI: 8.9 µM
SK-MEL-2 melanoma
  GI50: 2.41 µM
  TGI: 4.85 µM
SK-MEL-28 melanoma
  GI50: 3.13 µM
  TGI: 12.2 µM
SK-MEL-5 melanoma
  GI50: 1.72 µM
  TGI: 3.49 µM
SK-OV-3 ovarian
  GI50: 13.1 µM
  TGI: 25.8 µM
SN12C renal
  GI50: 2.61 µM
  TGI: 10.1 µM
SNB-19 CNS
  GI50: 14.6 µM
  TGI: 28.6 µM
SNB-75 CNS
  GI50: 2.58 µM
  TGI: 13.4 µM
SW-620 colon
  GI50: 2.03 µM
  TGI: 3.96 µM
T-47D breast
  GI50: 2.02 µM
  TGI: 4.7 µM
TK-10 renal
  GI50: 1.89 µM
  TGI: 3.46 µM
U251 CNS
  GI50: 3.75 µM
  TGI: 15.6 µM
UACC-257 melanoma
  GI50: 1.29 µM
  TGI: 4.27 µM
UACC-62 melanoma
  GI50: 2.05 µM
  TGI: 5.11 µM
UO-31 renal
  GI50: 1.4 µM
  TGI: 2.93 µM
